Laboratory results published in paper PMC10819521 (Pharmaceutics, 2024).
“And” between values parts separate entries of the source, which are not always exact repeats. Identical values can stand only once.

What was measured:
[1] = tested on: voltage-gated calcium channels; test: Calcium channel blockade (FLIPR Calcium 6 indicator, SH-SY5Y cells); type: cell-based, human; conditions: compounds at 10 µM, KCl/CaCl2 stimulation, n.i. = no inhibition
Protocol: Calcium channel blockade. Evaluation of the calcium channel blockade of compounds 4a–l was performed using the FLIPR Calcium 6 indicator according to a previously established protocol. Briefly, human neuroblastoma cell line SH-SY5Y seeded out on 96-well plate were treated with fluorescent calcium indicator (FLIPR Calcium 6, Molecular Devices). Cells were incubated with indicator for 2 h at 37 °C, facilitating internalization of the indicator. Subsequently, cells were exposed to nimodipine (10 µM, used as reference inhibitor), DMSO (0.1%, used as vehicle control) or our compounds of interest (10 µM) for 10 min also at 37 °C. Following that, cell fluorescence was recorded using a microplate reader (λEx = 485 nm; λEm = 525 nm). Baseline fluorescence was recorded for 5 s. Afterwards, cells were stimulated by the addition of the solution of KCl and CaCl2 (90 and 5 mM, respectively) in order to induce the opening of voltage-gated calcium channels. An increase in fluorescence of calcium indicator after inducing calcium flux was recorded for another 30 s. Data were collected from three independent experiments, with eight technical replicates per experiment. Fluorescence intensity values were normalized to the baseline recorded before the induction of calcium flux. The percentage of inhibition was calculated as a reduction of normalized calcium flux in comparison with the DMSO vehicle control. Outliers were detected using the Grubbs test, and any outlying values were excluded from further analysis.
Calcium channel blockade. The Ca^2+ channel blocking capacity of compounds 4a–l and nimodipine, used as a standard at a concentration of 10 μM, was evaluated according to an established methodology.

[2] = Oxygen radical absorbance capacity assay (ORAC-FL); conditions: ORAC-FL method; mean ± SEM
Protocol: Oxygen radical absorbance capacity assay. The evaluation of the antioxidant activity of compounds 4a–l was carried out using the previously established ORAC-FL method, and detailed information is provided in the supporting information.
Antioxidant assay. The antioxidant assessment was conducted by evaluating the compounds 4a–l through the determination of oxygen radical absorbance capacity (ORAC) using the ORAC-Fluorescein (ORAC-FL) method […]
Oxygen radical absorbance capacity assay.
ORAC-FL method, using fluorescein as a fluorescent probe. Shortly, fluorescein and the antioxidants
2,2'-Azobis(amidinopropane)
(emission wavelength) every minute for 1 hour. […]

[3] = tested on: Nrf2-ARE; test: Nrf2 transcriptional activation, cell-based luciferase assay; conditions: 24 h; for EC50: CD = concentration required to double the specific activity of the luciferase reporter, read-out: Nrf2 Induction Potencies CD
Protocol: Nrf2 transcriptional activation potencies. The assessment of the Nrf2 transcriptional activation potencies of compounds 4a–l was carried out using the previously described method, and detailed information is provided in the supporting information.
Nrf2 transcriptional activation potencies of compounds 4a–l. […] AREc32 cells were exposed to escalating concentrations of each compound (1, 5, 10, 25, 50, 100, 125, and 150 μM) for 24 h to reach the cytotoxic threshold, followed by measurements of luciferase activity. Melatonin was used as a positive control.
4e H Cl H n.i. 76 n.i. […]
Nrf2 transcriptional activation potencies. The stable NRF2/ARE luciferase reporter HEK293 cell line
(Promega) according to the manufacturer's instructions. To assess cellular viability, the stable

[4] = target: T1, Human recombinant cathepsin S (Homo sapiens, UniProt P25774); test: Cathepsin S assay (fluorogenic substrate Z-Phe-Arg-AMC); type: biochemical; conditions: for remaining activity at 50 µM: 50 µM inhibitor, 60 min, 100% = no inhibitor, n.i. = residual activity ≥ 95%, read-out: Percentage residual activity of human cathepsin S; for Ki: Ki ± SEM, n.i. = no inhibition, residual activity ≥ 95% at 50 μM, read-out: CatS Ki
T1 construct: purchased Enzo Life Sciences
T1 sequence (P25774 115-331): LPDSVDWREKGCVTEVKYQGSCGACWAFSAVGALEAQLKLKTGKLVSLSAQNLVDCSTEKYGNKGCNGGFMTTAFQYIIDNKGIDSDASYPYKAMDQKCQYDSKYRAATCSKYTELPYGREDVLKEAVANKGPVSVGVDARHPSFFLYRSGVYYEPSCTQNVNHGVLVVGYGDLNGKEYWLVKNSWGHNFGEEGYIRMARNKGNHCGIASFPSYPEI
Protocol: (§1) Cathepsin assays. Assays with human cathepsins B, S, L, and K were carried out as described previously. Stock solutions of substrates and inhibitors were prepared in DMSO. The final DMSO concentration was 2%. All test compounds were investigated in duplicate at a concentration of 50 µM to determine residual activities based on endpoints of substrate consumption after 60 min. Ki values were obtained in duplicate measurements with six different inhibitor concentrations, and 60-min-progress curves were analyzed by linear regression. IC50 values were obtained by non-linear regression using the equation vi = v0/(1 + ([I]/IC50), where vi is the product formation rate at different inhibitor concentrations, v0 is the uninhibited product formation rate, [I] is the inhibitor concentration, and IC50 is the half-maximal inhibitory concentration. IC50 values are transformed to Ki values using the Cheng-Prusoff equation.
Human recombinant cathepsin S (Enzo Life Sciences) was assayed fluorometrically (FLUOstar Optima plate reader, BMG Labtech) at 25 °C with an emission wavelength of 360 nm and an absorption wavelength of 460 nm. The assay buffer was 100 mM sodium phosphate buffer pH 6.0, 100 mM NaCl, 5 mM EDTA, 0.01% Brij 35. For activation, an enzyme stock solution was diluted with assay buffer containing 5 mM DTT and incubated for 60 min at 37 °C.
(§2) Cathepsins inhibition. Compounds 4a–l were then evaluated for their ability to inhibit Cat S. Besides Cat S, the set of assays included three related human cathepsins, B, L, and K, all members of the class of lysosomal cysteine proteases (see Table S1 in the Supporting Information). Following reported procedures, [39, 40, 41] percentage or residual activities were determined using chromogenic or fluorogenic peptide substrates, with endpoints measured after 60 min of substrate consumption. To determine Ki values, progress curves were followed over 60 min and analyzed by linear regression. Ki values were then obtained by non-linear regression.

[5] = target: T2, Human isolated cathepsin B (Homo sapiens, UniProt P07858); test: Cathepsin B assay (chromogenic substrate Z-Arg-Arg-pNA); type: biochemical; conditions: 50 µM inhibitor, 60 min, 100% = no inhibitor, n.i. = residual activity ≥ 95%; for remaining activity at 50 µM: read-out: Percentage residual activity of human cathepsin B
T2 construct: Human isolated cathepsin B (Calbiochem) was assayed spectrophotometrically; purchased Calbiochem
Protocol: as §1
(§3) Human isolated cathepsin B (Calbiochem) was assayed spectrophotometrically (Cary 50 Bio, Varian) at 405 nm and 37 °C. Assay buffer was 100 mM sodium phosphate buffer pH 6.0, 100 mM NaCl, 5 mM EDTA, 0.01% Brij 35. For activation, an enzyme stock solution was diluted with assay buffer containing 5 mM DTT and incubated for 30 min at 37 °C. The final concentration of the chromogenic substrate Z-Arg-Arg-pNA was 500 µM (0.45 × Km).
as §2

[6] = target: T3, Human isolated cathepsin L (Homo sapiens, UniProt P07711); test: Cathepsin L assay (chromogenic substrate Z-Phe-Arg-pNA); type: biochemical; conditions: 50 µM inhibitor, 60 min, 100% = no inhibitor, n.i. = residual activity ≥ 95%; for remaining activity at 50 µM: read-out: Percentage residual activity of human cathepsin L
T3 construct: Human isolated cathepsin L (Enzo Life Sciences) was assayed spectrophotometrically; purchased Enzo Life Sciences
T3 sequence (P07711 114-333): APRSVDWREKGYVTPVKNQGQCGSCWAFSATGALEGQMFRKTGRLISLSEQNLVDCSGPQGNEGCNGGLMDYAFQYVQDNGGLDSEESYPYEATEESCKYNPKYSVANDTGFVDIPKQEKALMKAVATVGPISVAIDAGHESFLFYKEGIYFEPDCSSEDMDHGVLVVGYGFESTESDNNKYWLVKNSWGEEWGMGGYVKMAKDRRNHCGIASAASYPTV
Protocol: as §1
as §3, with “L (Enzo Life Sciences)” for “B (Calbiochem)”, “The assay” for “Assay”, “EDTA, and” for “EDTA,”, “Z-Phe-Arg-pNA” for “Z-Arg-Arg-pNA”, “100” for “500”, “(5.88” for “(0.45”
as §2

[7] = target: T4, Human recombinant cathepsin K (Homo sapiens, UniProt P43235); test: Cathepsin K assay (substrate Z-Leu-Arg-AMC); type: biochemical; conditions: 50 µM inhibitor, 60 min, 100% = no inhibitor, n.i. = residual activity ≥ 95%; for remaining activity at 50 µM: read-out: Percentage residual activity of human cathepsin K
T4 construct: purchased Enzo Life Sciences
T4 sequence (P43235 115-329): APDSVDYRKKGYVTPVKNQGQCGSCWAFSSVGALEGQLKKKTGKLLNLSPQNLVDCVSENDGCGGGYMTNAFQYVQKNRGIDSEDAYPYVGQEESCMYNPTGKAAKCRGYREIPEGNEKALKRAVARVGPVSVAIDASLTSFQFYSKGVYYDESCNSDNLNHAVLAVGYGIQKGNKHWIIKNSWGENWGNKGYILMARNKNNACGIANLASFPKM
Protocol: as §1
Human recombinant cathepsin K (Enzo Life Sciences) was assayed fluorometrically (FLUOstar Optima plate reader, BMG Labtech) with an emission wavelength of 360 nm and an absorption wavelength of 460 nm. The assay buffer was 100 mM sodium citrate pH 5.0, 100 mM NaCl, 1 mM EDTA, 0.01% CHAPS. For activation, an enzyme stock solution was diluted with assay buffer containing 5 mM DTT and incubated for 30 min at 37 °C. The final concentration of the chromogenic substrate Z-Leu-Arg-AMC was 40 µM (13.33 × Km).
as §2

SMILES | Calcium Channel Blockade (%) [1] | ORAC [2] | Induction of the Nrf2 pathway (luciferase activity) ([3]; concentrations up to 150 μM, versus non-treated cells) | remaining activity at 50 µM [4] | Percentage residual activity of human cathepsin B [5] | Percentage residual activity of human cathepsin L [6] | Percentage residual activity of human cathepsin K [7] | remaining activity at 50 µM [6] | remaining activity at 50 µM [7] | remaining activity at 50 µM [5] | Ki [4] | EC50 [3]
C#CCNC(=O)C1=C(C)NC(C)=C(C(=O)NCC#C)C1c1ccccc1 [4a, 2,6-Dimethyl-4-phenyl-N3,N5-bis(prop-2-yn-1-yl)-1,4-dihydropyridine-3,5-dicarboxamide] | 12% | 0.86 Trolox equivalents and 0.86 ± 0.05 Trolox equivalents | no significant activity | 68% | n.i. | n.i. | n.i. | – | – | – | – | –
C#CCNC(=O)C1=C(C)NC(C)=C(C(=O)NCC#C)C1c1cccc2nonc12 [4d, 4-(2,1,3-Benzoxadiazol-4-yl)-2,6-dimethyl-N3,N5-bis(prop-2-yn-1-yl)-1,4-dihydropyridine-3,5-dicarboxamide] | 10% | 1.23 ± 0.23 Trolox equivalents | – | 77% | n.i. | – | – | 90% | 62% | – | – | –
C#CCNC(=O)C1=C(C)NC(C)=C(C(=O)NCC#C)C1c1ccccc1Cl [4e, 4-(2-Chlorophenyl)-2,6-dimethyl-N3,N5-bis(prop-2-yn-1-yl)-1,4-dihydropyridine-3,5-dicarboxamide] | n.i. | 1.15 ± 0.02 Trolox equivalents | – | 76% | n.i. | n.i. | – | – | 85% | – | – | –
C#CCNC(=O)C1=C(C)NC(C)=C(C(=O)NCC#C)C1c1ccccc1OC [4f, 4-(2-Methoxyphenyl)-2,6-dimethyl-N3,N5-bis(prop-2-yn-1-yl)-1,4-dihydropyridine-3,5-dicarboxamide] | 19% | 1.34 ± 0.20 Trolox equivalents | – | 67% | – | – | n.i. | 86% | – | 71% | – | –
C#CCNC(=O)C1=C(C)NC(C)=C(C(=O)NCC#C)C1c1ccccc1Br [4g, 4-(2-Bromophenyl)-2,6-dimethyl-N3,N5-bis(prop-2-yn-1-yl)-1,4-dihydropyridine-3,5-dicarboxamide] | n.i. | 1.43 ± 0.03 Trolox equivalents | – | 70% | – | n.i. | – | – | 90% | 88% | – | –
C#CCNC(=O)C1=C(C)NC(C)=C(C(=O)NCC#C)C1c1cccc(Br)c1 [4h, 4-(3-Bromophenyl)-2,6-dimethyl-N3,N5-bis(prop-2-yn-1-yl)-1,4-dihydropyridine-3,5-dicarboxamide] | 7% | 1.28 ± 0.05 Trolox equivalents | – | 54% | – | – | n.i. | 87% | – | 71% | 55.3 ± 7.4 µM | –
C#CCN(C)C(=O)C1=C(C)NC(C)=C(C(=O)N(C)CC#C)C1c1ccccc1Cl [4i, 4-(2-Chlorophenyl)-N2,N3,5,6-tetramethyl-N3,N5-bis(prop-2-yn-1-yl)-1,4-dihydropyridine-3,5-dicarboxamide] | 11% | 1.93 Trolox equivalents and 1.93 ± 0.08 Trolox equivalents | – | 58% | – | – | – | 91% | 65% | 87% | 69.3 ± 5.2 µM | 96 ± 6.1 µM
C#CCN(C)C(=O)C1=C(C)NC(C)=C(C(=O)N(C)CC#C)C1c1cccc(Cl)c1Cl [4j, 4-(2,3-Dichlorophenyl)-N2,N3,5,6-tetramethyl-N3,N5-bis(prop-2-yn-1-yl)-1,4-dihydropyridine-3,5-dicarboxamide] | 12% | 1.82 Trolox equivalents and 1.82 ± 0.05 Trolox equivalents | – | 69% | – | – | – | 87% | 81% | 90% | – | 77.2 ± 7.1 µM
COc1ccc2[nH]cc(CCNC(C)=O)c2c1 [melatonin, reference compound] | – | – | – | – | – | – | – | – | – | – | – | 66.4 ± 16.4 µM
